Assay results as given in patent US9718804B2, “GSK-3 inhibitors” (BRISTOL-MYERS SQUIBB COMPANY, priority 2013, dated 2017).
Read-outs that look alike come from different tables or passages of the source.

Legend:
pTau = pTau assay (no method described); type: cell-based
GSK3β = GSK3β (Homo sapiens, UniProt P49841); test: GSK3β kinase assay (Caliper LabChip, fluoresceinated peptide substrate); type: biochemical
Outline: (§1)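 Reactions run 20 hours at room temperature, stopped with EDTA. Phosphorylated and unphosphorylated fluoresceinated peptide separated electrophoretically on Caliper LabChip3000. Eleven compound concentrations tested; IC50 by non-linear regression.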

GSK3α = GSK3α (Homo sapiens, UniProt P49840); test: GSK3α kinase assay (Caliper LabChip, fluoresceinated peptide substrate); type: biochemical
Sequence of GSK3α (P49840 whole entry, species assumed): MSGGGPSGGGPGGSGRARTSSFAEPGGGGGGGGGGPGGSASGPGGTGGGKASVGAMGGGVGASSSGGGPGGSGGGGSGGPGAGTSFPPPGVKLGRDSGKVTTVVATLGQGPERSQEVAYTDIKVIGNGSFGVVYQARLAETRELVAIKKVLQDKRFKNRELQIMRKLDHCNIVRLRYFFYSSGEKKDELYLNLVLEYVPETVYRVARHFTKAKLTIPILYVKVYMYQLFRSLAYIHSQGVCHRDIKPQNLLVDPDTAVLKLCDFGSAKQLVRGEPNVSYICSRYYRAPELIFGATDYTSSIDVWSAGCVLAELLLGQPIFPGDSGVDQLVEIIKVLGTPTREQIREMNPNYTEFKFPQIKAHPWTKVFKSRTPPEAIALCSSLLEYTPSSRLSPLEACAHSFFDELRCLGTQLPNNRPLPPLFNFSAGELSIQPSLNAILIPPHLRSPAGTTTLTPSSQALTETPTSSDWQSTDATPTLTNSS
Outline: as §1

[1] = first value of the cell, 250 pM enzyme, 20 uM ATP, 20 hours at room temperature, read-out: GSK3β/α (nM): GSK3β IC50

Sequence of GSK3β (P49841 whole entry, species assumed): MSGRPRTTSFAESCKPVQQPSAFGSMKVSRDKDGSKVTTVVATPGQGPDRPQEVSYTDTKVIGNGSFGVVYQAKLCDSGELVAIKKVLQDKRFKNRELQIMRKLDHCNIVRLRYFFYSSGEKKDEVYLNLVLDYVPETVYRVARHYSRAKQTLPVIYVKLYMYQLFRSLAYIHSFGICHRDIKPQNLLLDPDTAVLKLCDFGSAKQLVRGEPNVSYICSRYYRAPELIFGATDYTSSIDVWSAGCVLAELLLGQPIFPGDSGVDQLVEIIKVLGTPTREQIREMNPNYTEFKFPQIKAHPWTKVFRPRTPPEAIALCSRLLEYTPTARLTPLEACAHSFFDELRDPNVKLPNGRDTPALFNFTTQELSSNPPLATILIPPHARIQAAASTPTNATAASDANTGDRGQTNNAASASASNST

| SMILES | IC50 (pTau) [nM] | IC50 (GSK3β; [1]) [nM] | IC50 (GSK3α) [nM] | IC50 (GSK3β) [nM] | IC50 (GSK3α; second value of the cell, 250 pM enzyme, 20 uM ATP, 20 hours at room temperature, read-out: GSK3β/α (nM): GSK3α IC50) [nM] |
| --- | --- | --- | --- | --- | --- |
| Cc1cccc(Nc2cc(C(=O)Nc3cncc(-c4ccccc4F)c3)ccn2)n1 [Example 137, N-(5-(2-Fluorophenyl)pyridin-3-yl)-2-((6-methylpyridin-2-yl)amino)isonicotinamide] | 2700 | 7.1 | 5.6 |  |  |
| COc1ccc(Nc2cc(C(=O)Nc3cncc(-c4ccccc4F)c3)ccn2)nc1 [Example 141, N-(5-(2-Fluorophenyl)pyridin-3-yl)-2-((5-methoxylpyridin-2-yl)amino)isonicotinamide] | 680 | 3.5 | 1.8 |  |  |
| O=C(Nc1cnccc1N1CCC(F)(F)CC1)c1ccnc(Nc2ccc(C(F)(F)F)cn2)c1 [Example 24, N-(4-(4,4-Difluoropiperidin-1-yl)pyridin-3-yl)-2-((5-(trifluoromethyl)pyridin-2-yl)amino)isonicotinamide] | 4.6 | 0.69 | 0.49 |  |  |
| O=C(Nc1cnccc1-c1ccccc1)c1ccnc(Nc2cc3ccccc3cn2)c1 [Example 115, 2-(Isoquinolin-3-ylamino)-N-(4-phenylpyridin-3-yl)isonicotinamide] | 297 | 0.97 | 0.65 |  |  |
| Cc1cc(C(O)C2CC2)c(NC(=O)c2ccnc(Nc3ccc(C(F)(F)F)cn3)c2)cn1 (stereo not drawn) [Example 106, N-(4-(Cyclopropyl(hydroxy)methyl)-6-methylpyridin-3-yl)-2-((5-(trifluoromethyl)pyridin-2-yl)amino)isonicotinamide] | 22 | 0.25 | 0.49 |  |  |
| O=C(Nc1cncc(-c2cccc(F)c2F)c1)c1ccnc(Nc2cccc(C(F)(F)F)n2)c1 [Example 147, N-(5-(2,3-Difluorophenyl)pyridin-3-yl)-2-((6-(trifluoromethyl)pyridin-2-yl)amino)isonicotinamide] | 380 | 2.3 | 44 |  |  |
| O=C(Nc1cnccc1OCC(F)F)c1ccnc(Nc2ccc(C(F)(F)F)cn2)c1 [Example 42, N-(4-(2,2-Difluoroethoxy)pyridin-3-yl)-2-((5-(trifluoromethyl)pyridin-2-yl)amino)isonicotinamide] | 21 | 0.49 | 0.27 |  |  |
| C[C@H]1COCCN1c1ccncc1NC(=O)c1ccnc(Nc2ccc(C(F)(F)F)cn2)c1 [Example 20, (S)—N-(4-(3-Methylmorpholino)pyridin-3-yl)-2-((5-(trifluoromethyl)pyridin-2-yl)amino)isonicotinamide] | 0.66 | 0.1 | 0.09 |  |  |
| O=C(Nc1cnccc1-c1ccc(F)cc1)c1ccnc(Nc2cccc(Cl)n2)c1 [Example 48, 2-((6-Chloropyridin-2-yl)amino)-N-(4-(4-fluorophenyl)pyridin-3-yl)isonicotinamide] | 270 | 2.9 | 1.9 |  |  |
| O=C(Nc1cncc(N2CCOCC2)c1)c1ccnc(Nc2ccc(C(F)(F)F)cn2)c1 [Example 121, N-(5-Morpholinopyridin-3-yl)-2-((5-(trifluoromethyl)pyridin-2-yl)amino)isonicotinamide] | 1500 | 25 | 12 |  |  |
| C[C@H]1CO[C@](c2cc(Cl)ncc2NC(=O)c2ccnc(Nc3ccc(C(F)(F)F)cn3)c2)(C2CC2)O1 [Example 97, N-(6-Chloro-4-((2R,4S)-2-cyclopropyl-4-methyl-1,3-dioxolan-2-yl)pyridin-3-yl)-2-((5-(trifluoromethyl)pyridin-2-yl)amino)isonicotinamide] | 84 | 1.5 | 0.56 |  |  |
| CC(C)(C#N)c1ccc(Nc2cc(C(=O)Nc3cncc(-c4ccccc4F)c3)ccn2)nc1 [Example 164, 2-((5-(2-Cyanopropan-2-yl)pyridin-2-yl)amino)-N-(5-(2-fluorophenyl)pyridin-3-yl)isonicotinamide] | 3100 | 4.9 | 2.4 |  |  |
| CC(C)(C)COc1cc(F)ncc1NC(=O)c1ccnc(Nc2ccc(Cl)cn2)c1 [Example 112, 2-((5-Chloropyridin-2-yl)amino)-N-(6-fluoro-4-(neopentyloxy)pyridin-3-yl)isonicotinamide] | 850 | 5 | 3 |  |  |
| CCC(O)(c1cc(Cl)ncc1NC(=O)c1ccnc(Nc2ccc(C(F)(F)F)cn2)c1)C1CC1 (stereo not drawn) [Example 101, N-(6-Chloro-4-(1-cyclopropyl-1-hydroxypropyl)pyridin-3-yl)-2-((5-(trifluoromethyl)pyridin-2-yl)amino)isonicotinamide] | 660 | 11 | 7.4 |  |  |
| CC(=O)c1ccncc1NC(=O)c1ccnc(Nc2ccc(C(F)(F)F)cn2)c1 [Example 37, N-(4-Acetylpyridin-3-yl)-2-((5-(trifluoromethyl)pyridin-2-yl)amino)isonicotinamide] | 130 | 3.3 | 1.5 |  |  |
| O=C(Nc1cnc(F)cc1N1CCOCC1)c1ccnc(Nc2ccc(C(F)(F)F)cn2)c1 [Example 73, N-(6-Fluoro-4-morpholinopyridin-3-yl)-2-((5-(trifluoromethyl)pyridin-2-yl)amino)isonicotinamide] | 43 | 1 | 0.6 |  |  |
| CC(C)(C)COc1ccncc1NC(=O)c1ccnc(Nc2ccc(C(F)(F)F)cn2)c1 [Example 17, N-(4-(Neopentyloxy)pyridin-3-yl)-2-((5-(trifluoromethyl)pyridin-2-yl)amino)isonicotinamide] | 43 | 1.6 | 0.89 |  |  |
| CC1(c2cc(Cl)ncc2NC(=O)c2ccnc(Nc3ccc(C(F)(F)F)cn3)c2)CCCO1 (stereo not drawn) [Example 77, N-(6-Chloro-4-(2-methyltetrahydrofuran-2-yl)pyridin-3-yl)-2-((5-(trifluoromethyl)pyridin-2-yl)amino)isonicotinamide] | 31 | 0.63 | 0.35 |  |  |
| O=C(Nc1cncc(-c2ccccc2F)n1)c1ccnc(Nc2ccc(C(F)(F)F)cn2)c1 [Example 190, N-(6-(2-Fluorophenyl)pyrazin-2-yl)-2-((5-(trifluoromethyl)pyridin-2-yl)amino)isonicotinamide] | 10000 | 68 | 29 |  |  |
| O=C(Nc1cnccc1-c1ccccc1)c1ccnc(Nc2cc(C(F)(F)F)ccn2)c1 [Example 3, N-(4-Phenylpyridin-3-yl)-2-((4-(trifluoromethyl)pyridin-2-yl)amino)isonicotinamide] | 705 |  |  | 9 | 8.7 |
| CC1(c2cc(Cl)ncc2NC(=O)c2ccnc(Nc3ccc(C(F)(F)F)cn3)c2)OCCO1 [Example 76, N-(6-Chloro-4-(2-methyl-1,3-dioxolan-2-yl)pyridin-3-yl)-2-((5-(trifluoromethyl)pyridin-2-yl)amino)isonicotinamide] | 13 | 0.32 | 0.2 |  |  |
| O=C(Nc1cncc(OCC2CC2)c1)c1ccnc(Nc2cccc(C(F)(F)F)n2)c1 [Example 124, N-(5-(Cyclopropylmethoxy)pyridin-3-yl)-2-((6-(trifluoromethyl)pyridin-2-yl)amino)isonicotinamide] | 3600 | 9.4 | 3.5 |  |  |
| O=C(Nc1cnccc1-c1ccccc1)c1ccnc(Nc2ccc3ccccc3n2)c1 [Example 116, N-(4-Phenylpyridin-3-yl)-2-(quinolin-2-ylamino)isonicotinamide] | 610 | 7.8 | 3.9 |  |  |
